Reference: patent US6403765B1, “Truncated Apaf-1 and methods of use thereof” (Thomas Jefferson University, priority 1998, dated 2002)
Entries after “also recorded” stand apart in the source; their conditions may differ.

Tests used:
procaspase-6 = test: Cytochrome c/dATP-dependent processing of procaspase-6 in 293 cellular S100 extract; format: biochemical; conditions: 35S-labeled procaspase-6, 293 S100 extract, FIG. 8
Protocol: (§1) In FIG. 8, ^35S-labeled procaspase-3, -6 or -7 were incubated with S100 extracts from 293 cells in the presence or absence of cytochrome c/dATP or DEVD-CHO, or both and analyzed by SDS-PAGE followed by autoradiography. However, when DEVD-CHO was included, processing of procaspase-6 (lane 6), but not procaspase-3 (lane 3) or -7 (lane 9) was inhibited. […] Also, since caspase-7 cannot process procaspase-6 (Srinivasula et al., J. Biol. Chem. 271:27099-27106, 1996), caspase-3 is the one responsible for processing of procaspase-6 in the cytochrome c plus dATP-dependent pathway.

procaspase-3 = test: Cytochrome c/dATP-dependent processing of procaspase-3 in 293 cellular S100 extract; format: biochemical; conditions: cytochrome c/dATP
Protocol: (§2) To confirm this, a time course analysis of procaspase-9 and procaspase-3 processing was performed in cellular S100 extracts from 293 and MCF-7 cells. […] At the indicated times the reactions were stopped and then analyzed by SDS-PAGE and autoradiography (procaspase-9 panels) or Western blot analysis using anti-caspase-3 p20 polyclonal antibody (procaspase-3 panels). Small arrows indicate a non-specific band detected by the anti-caspase-3 antibody.
as §1
(§3) In FIG. 18, 293 cellular S100 extracts supplemented with ^35S-labeled procaspase-9 (upper panel) or procaspase-3 (lower panel) were incubated with (lanes 3-7) or without (lane 2) cytochrome c plus dATP in the presence of increasing amounts of purified recombinant procaspase-9-C287A mutant for 1 hour at 30° C. and then analyzed by SDS-PAGE and autoradiography. […] Consequently, the Apaf-1/caspase-9 pathway appears to be a central apoptotic pathway, on which most apoptotic signals converge.

procaspase-7 = test: Cytochrome c/dATP-dependent processing of procaspase-7 in 293 cellular S100 extract; format: biochemical; conditions: 35S-labeled procaspase-7, 293 S100 extract, FIG. 8
Protocol: as §1

procaspase-9 = test: Cytochrome c/dATP-dependent processing of procaspase-9 in 293 cellular S100 extract; format: biochemical; conditions: 293 S100 extract, cytochrome c plus dATP
Protocol: To study processing of procaspase-9 in the cytochrome c/Apaf-1-dependent pathway, WT and the Asp to Ala mutants of procaspase-9 were incubated with a cellular S100 extract in the presence or absence of cytochrome c and dATP. […] Samples were then analyzed by SDS-PAGE and autoradiography.
as §2, §3

T7-tagged Apaf-530 = target: T1, T7-tagged Apaf-530 (human, UniProt O14727 1-541); test: co-immunoprecipitation from co-transfected 293 cells: anti-Flag IP, anti-T7 immunoblot
T1 construct: Expressed in co-transfected 293 cells; also called T7-Apaf-530
T1 sequence: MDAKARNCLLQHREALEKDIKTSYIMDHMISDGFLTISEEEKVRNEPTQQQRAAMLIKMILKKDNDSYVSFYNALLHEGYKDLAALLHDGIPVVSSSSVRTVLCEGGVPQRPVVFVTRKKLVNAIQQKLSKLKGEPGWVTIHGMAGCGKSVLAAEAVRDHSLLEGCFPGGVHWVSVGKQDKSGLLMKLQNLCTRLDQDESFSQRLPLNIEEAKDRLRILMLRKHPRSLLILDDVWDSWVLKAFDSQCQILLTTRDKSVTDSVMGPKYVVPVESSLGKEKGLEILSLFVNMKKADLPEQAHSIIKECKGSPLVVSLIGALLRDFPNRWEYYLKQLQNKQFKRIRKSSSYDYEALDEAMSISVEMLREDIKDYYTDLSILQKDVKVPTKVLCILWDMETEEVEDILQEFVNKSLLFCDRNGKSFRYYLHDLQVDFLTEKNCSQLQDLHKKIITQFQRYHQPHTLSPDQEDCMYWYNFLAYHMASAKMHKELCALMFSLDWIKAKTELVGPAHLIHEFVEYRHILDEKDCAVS
Protocol: (§4) The immunoprecipitates were analyzed by Western blotting with an anti-T7 antibody.
(§5) After 36 hours, extracts were prepared and immunoprecipitated with a monoclonal antibody to the Flag epitope. The immunoprecipitates (upper panel) were analyzed by SDS-PAGE and immunoblotted with a horseradish peroxides-conjugated T7 antibody.
(§6) In vivo interaction experiments between Apaf-1 variants and Bcl-x_L were performed. […] After 36 hours, extracts were prepared and immunoprecipitated with a monoclonal antibody to the Flag epitope. The immunoprecipitates (FIG. 16, upper panel) were analyzed by SDS-PAGE and immunoblotted with a horseradish peroxidase-conjugated T7 antibody.

T7-tagged Bcl-xL = target: T2, T7-tagged Bcl-xL (UniProt Q07817 1-233); test: as above
T2 construct: Expressed in co-transfected 293 cells
Protocol: as §4, §5, §6

[1] = target: T3, Apaf-1 (endogenous, in 293 cellular S100 extract, with cytochrome c plus dATP)
T3 chain: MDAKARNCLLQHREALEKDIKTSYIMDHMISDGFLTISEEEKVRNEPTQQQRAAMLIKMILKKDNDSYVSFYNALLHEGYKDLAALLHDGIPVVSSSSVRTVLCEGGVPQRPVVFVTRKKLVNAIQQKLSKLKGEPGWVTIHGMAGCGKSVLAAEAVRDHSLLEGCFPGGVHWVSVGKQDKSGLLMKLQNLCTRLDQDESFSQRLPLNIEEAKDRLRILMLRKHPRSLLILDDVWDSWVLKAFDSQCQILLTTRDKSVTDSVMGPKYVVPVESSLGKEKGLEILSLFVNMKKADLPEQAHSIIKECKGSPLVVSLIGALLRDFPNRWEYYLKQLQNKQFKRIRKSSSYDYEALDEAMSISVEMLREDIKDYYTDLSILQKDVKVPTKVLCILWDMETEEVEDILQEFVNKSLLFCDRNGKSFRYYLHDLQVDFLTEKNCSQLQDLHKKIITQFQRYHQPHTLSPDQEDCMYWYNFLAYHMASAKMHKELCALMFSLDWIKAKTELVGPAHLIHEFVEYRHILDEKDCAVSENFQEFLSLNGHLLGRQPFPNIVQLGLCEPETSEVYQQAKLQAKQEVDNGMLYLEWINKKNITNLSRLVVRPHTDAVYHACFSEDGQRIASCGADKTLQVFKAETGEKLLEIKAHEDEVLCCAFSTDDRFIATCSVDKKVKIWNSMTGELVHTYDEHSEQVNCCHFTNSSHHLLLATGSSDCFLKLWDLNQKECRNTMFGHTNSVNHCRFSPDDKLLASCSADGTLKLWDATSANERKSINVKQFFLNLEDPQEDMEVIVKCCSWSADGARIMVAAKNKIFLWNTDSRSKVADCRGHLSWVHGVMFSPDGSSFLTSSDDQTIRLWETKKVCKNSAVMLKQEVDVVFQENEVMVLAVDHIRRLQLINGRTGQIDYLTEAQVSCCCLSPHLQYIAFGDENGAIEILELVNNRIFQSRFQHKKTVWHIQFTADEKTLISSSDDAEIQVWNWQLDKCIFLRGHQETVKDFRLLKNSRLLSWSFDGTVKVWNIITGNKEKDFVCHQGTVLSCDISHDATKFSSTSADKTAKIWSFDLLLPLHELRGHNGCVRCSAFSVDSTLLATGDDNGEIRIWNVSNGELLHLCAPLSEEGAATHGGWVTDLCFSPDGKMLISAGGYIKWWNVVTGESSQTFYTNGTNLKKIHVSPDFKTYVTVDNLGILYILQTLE

[2] = target: T4, recombinant Apaf-530 (Ni2+-affinity purified, bacterially expressed, C-terminal His6 tag)
T4 chain: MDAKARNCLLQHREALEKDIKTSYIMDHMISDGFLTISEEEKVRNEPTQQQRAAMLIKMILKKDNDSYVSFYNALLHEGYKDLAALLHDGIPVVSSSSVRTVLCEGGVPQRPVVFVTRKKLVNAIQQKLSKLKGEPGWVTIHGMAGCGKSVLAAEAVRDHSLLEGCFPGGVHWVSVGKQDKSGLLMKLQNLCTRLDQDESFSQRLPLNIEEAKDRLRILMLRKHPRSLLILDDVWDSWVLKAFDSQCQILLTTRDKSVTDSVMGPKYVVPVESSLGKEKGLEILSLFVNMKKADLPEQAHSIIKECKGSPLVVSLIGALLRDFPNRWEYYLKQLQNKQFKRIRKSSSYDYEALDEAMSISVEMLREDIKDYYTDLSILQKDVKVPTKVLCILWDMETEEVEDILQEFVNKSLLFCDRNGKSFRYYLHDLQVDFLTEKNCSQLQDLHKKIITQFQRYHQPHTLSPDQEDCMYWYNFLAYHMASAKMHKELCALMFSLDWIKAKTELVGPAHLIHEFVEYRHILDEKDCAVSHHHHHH

[3] = 293 S100 extract, Western blot, FIG. 5

T2 sequence (Q07817 whole entry): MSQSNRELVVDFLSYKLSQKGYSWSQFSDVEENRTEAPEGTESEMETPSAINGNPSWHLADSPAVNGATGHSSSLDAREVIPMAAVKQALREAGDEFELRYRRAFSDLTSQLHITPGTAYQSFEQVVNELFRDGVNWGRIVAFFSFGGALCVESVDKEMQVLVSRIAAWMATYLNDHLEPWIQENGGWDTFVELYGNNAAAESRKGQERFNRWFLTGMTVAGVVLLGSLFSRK

## Asp-Glu-Val-Asp-aldehyde [DEVD-CHO]
procaspase-6
  inhibition of processing of procaspase-6: inhibited
procaspase-3; 35S-labeled procaspase-3, 293 S100 extract, FIG. 8
  inhibition of processing of procaspase-3: not
procaspase-3; [3]
  effect on processing of procaspase-3: slightly attenuated
  inhibition of autoconversion of caspase-3-p20 to p19: blocked
procaspase-7
  inhibition of processing of procaspase-7: not
procaspase-9
  inhibition of procaspase-9 processing at Asp315 (autocatalytic generation of p35 fragment): not and did not block
  inhibition of procaspase-9 processing at Asp330 (generation of p37 fragment): sensitive to inhibition; also recorded: blocked

B1: Flag-tagged Apaf-97 (other, not shown: small tags and cut ends)
chain: MDAKARNCLLQHREALEKDIKTSYIMDHMISDGFLTISEEEKVRNEPTQQQRAAMLIKMILKKDNDSYVSFYNALLHEGYKDLAALLHDGIPVVSSS
notes: Expressed in co-transfected 293 cells; also called Flag-Apaf-97
T7-tagged Apaf-530
  binding result: no binding
T7-tagged Bcl-xL
  binding result: no binding

B2: purified recombinant procaspase-9-C287A mutant (protein)
chain: MDEADRRLLRRCRLRLVEELQVDQLWDALLSRELFRPHMIEDIQRAGSGSRRDQARQLIIDLETRGSQALPLFISCLEDTGQDMLASFLRTNRQAAKLSKPTLENLTPVVLRPEIRKPEVLRPETPRPVDIGSGGFGDVGALESLRGNADLAYILSMEPCGHCLIINNVNFCRESGLRTRTGSNIDCEKLRRRFSSLHFMVEVKGDLTAKKMVLALLELAQQDHGALDCCVVVILSHGCQASHLQFPGAVYGTDGCPVSVEKIVNIFNGTSCPSLGGKPKLFFIQAAGGEQKDHGFEVASTSPEDESPGSNPEPDATPFQEGLRTFDQLDAISSLPTPSDIFVSYSTFPGFVSWRDPKSGSWYVETLDDIFEQWAHSEDLQSLLLRVANAVSVKGIYKQMPGCFNFLRKKLFFKTS
[1]
  cytochrome c/dATP-induced activation of procaspase-9 and procaspase-3 in the 293 S100 extract: able to attenuate cytochrome c/dATP-induced activation of procaspase-9 and procaspase-3 in the 293 S100 extract in a dose-dependent manner
[2]
  Apaf-530-induced activation of procaspase-9 in the in vitro reconstituted system: A similar result was also obtained with the Apaf-530-induced activation of procaspase-9 in the in vitro reconstituted system (data not shown)
